From ChEMBL document CHEMBL1201862, “PubChem BioAssay data set” (2004) come the findings set out here.

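Tested at 5 concentrations; 48 h exposure; 96-well plates; endpoints linearly interpolated, else capped at highest concentration. At the GI50, growth is halved.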 The source made the active and inactive calls. Cut-off read from the data, not from the text of the source: active = GI50 up to about 1.1 µM and inactive = higher.

Some test systems named below: U-251; HCT-116; UACC-257; A549; UO-31; Hs-578T; M14; NCI-H460; CCRF-CEM; HCC 2998; NCI-H522; MOLT-4; SF-295; HT-29; HOP-92; OVCAR-3; SR; KM12; A498; LOX IMVI.
Common to all, as to experiment: DTP human tumour cell line panel, 48 h

One may read the GI50 as the concentration giving 50% growth inhibition. For `NNC(=O)c1ccccc1Nc1nc(-c2cccs2)nc2ccc(Br)cc12`, the GI50 in the assay on U-251 was 23.2 µM (inactive); with HCT-116, 70 µM (inactive); in the assay with UACC-257 it was > 100 µM (inactive); in the assay with A549, 85.1 µM (inactive); with UO-31, > 100 µM (inactive); in the assay on Hs-578T, > 100 µM (inactive). Also, the GI50 is 86.7 µM (inactive) in the assay on M14; 87.3 µM (inactive) in the assay with NCI-H460; > 100 µM (inactive) with CCRF-CEM; 90.4 µM (inactive) in the assay with HCC 2998; > 100 µM (inactive) in the assay on NCI-H522; > 100 µM (inactive) in the assay on MOLT-4. Besides, the GI50 was 51.8 µM (inactive) with SF-295; 78.5 µM (inactive) with HT-29; > 100 µM (inactive) in the assay with HOP-92; 25.9 µM (inactive) in the assay on OVCAR-3; > 100 µM (inactive) in the assay on SR; 67.5 µM (inactive) in the assay with KM12. Besides, the GI50 in the assay with A498 was > 100 µM (inactive); with LOX IMVI, 44.9 µM (inactive).

With `COc1c(OC/C=C(\C)CCC=C(C)C)ccc2ccc(=O)oc12` [COLLININ], the GI50 is > 100 µM (inactive) in the assay on U-251; > 100 µM (inactive) with HCT-116; > 100 µM (inactive) with UACC-257; > 100 µM (inactive) in the assay with A549; > 100 µM (inactive) with UO-31; 90.4 µM (inactive) with Hs-578T. Besides, the GI50 with M14 was > 100 µM (inactive); in the assay on NCI-H460, > 10 µM (inactive); in the assay with CCRF-CEM, > 100 µM (inactive); in the assay with HCC 2998 it was > 100 µM (inactive); in the assay with NCI-H522, > 100 µM (inactive); with MOLT-4 it was 56.5 µM (inactive). The GI50 in the assay on SF-295 is > 100 µM (inactive); in the assay with HT-29, 94.4 µM (inactive); in the assay on HOP-92 it was 77.4 µM (inactive); in the assay with OVCAR-3 it was > 100 µM (inactive); in the assay with SR, 61.5 µM (inactive); with KM12, 43.6 µM (inactive). The GI50 with A498 and in the assay on LOX IMVI was > 100 µM (inactive) in each case.

For the molecule `C=C1C(=O)O[C@@H]2[C@H]1C[C@H](I)[C@@]1(C)CC[C@H](O1)[C@](C)(I)CCCC(C)[C@@H]2O` (stereo not given in full), the GI50 was 6.07 µM (inactive) in the assay on U-251; 2.88 µM (inactive) in the assay on HCT-116; 6.1 µM (inactive) in the assay with UACC-257; 9.79 µM (inactive) with A549; 3.66 µM (inactive) in the assay on UO-31; 14.6 µM (inactive) in the assay with Hs-578T. Besides, the GI50 was 4.68 µM (inactive) in the assay on M14; 14.5 µM (inactive) in the assay with NCI-H460; 0.384 µM (active) in the assay on CCRF-CEM; 12.2 µM (inactive) in the assay with HCC 2998; 0.311 µM (active) in the assay on NCI-H522; 1.49 µM (inactive) in the assay on MOLT-4. Further, the GI50 in the assay on SF-295 was 16 µM (inactive); in the assay with HT-29 it was 1.93 µM (inactive); with HOP-92 it was 1.54 µM (inactive); in the assay on OVCAR-3, 2.64 µM (inactive); with SR, 2 µM (inactive); in the assay on KM12, 9.04 µM (inactive). The results for the GI50 in the assay on A498 and in the assay on LOX IMVI were 14.6 µM (inactive) and 1.32 µM (inactive), respectively.

`CCCN(CCCCC(NC(C)=O)C(=O)NCc1ccccc1)C(=O)N(CCCl)N=O` (stereo not given): the GI50 was 15.8 µM (inactive) with U-251; 60.3 µM (inactive) in the assay with HCT-116; > 100 µM (inactive) in the assay on UACC-257; 32.3 µM (inactive) in the assay with A549; 84.1 µM (inactive) in the assay with UO-31; 42.1 µM (inactive) with Hs-578T. Also, the GI50 in the assay on M14 is 59.6 µM (inactive); with NCI-H460 it was 10.1 µM (inactive); in the assay on CCRF-CEM it was 54.6 µM (inactive); in the assay with HCC 2998, > 58.9 µM (inactive); with NCI-H522, > 82.2 µM (inactive); in the assay with MOLT-4, 36.3 µM (inactive). Also, the GI50 in the assay on SF-295 is 20.9 µM (inactive); in the assay on HT-29 it was > 96.6 µM (inactive); in the assay with HOP-92 it was 43.8 µM (inactive); with OVCAR-3, > 100 µM (inactive); with SR it was 19.3 µM (inactive); in the assay with KM12, > 100 µM (inactive). The GI50 in the assay with A498 is > 86.9 µM (inactive); with LOX IMVI, 22.9 µM (inactive).

Take `O=C1Oc2ccccc2C1C/C(=N\Nc1ccccc1)c1ccccc1O` (stereo not given): the GI50 in the assay on U-251 is 40.3 µM (inactive); in the assay on HCT-116, 28.4 µM (inactive); in the assay on UACC-257, 28.8 µM (inactive); with A549, 50 µM (inactive); in the assay on UO-31, 23.3 µM (inactive); in the assay on Hs-578T, 74.5 µM (inactive). Moreover, the GI50 in the assay with M14 is 50.8 µM (inactive); with NCI-H460, 34.4 µM (inactive); in the assay on CCRF-CEM, 62.1 µM (inactive); in the assay with HCC 2998, 34.8 µM (inactive); in the assay on NCI-H522 it was 38.2 µM (inactive); in the assay with MOLT-4 it was 29.9 µM (inactive). Also, the GI50 is 33.7 µM (inactive) in the assay on SF-295; 28.4 µM (inactive) in the assay with HT-29; 25.6 µM (inactive) in the assay with HOP-92; 32.8 µM (inactive) in the assay with OVCAR-3; 27.4 µM (inactive) in the assay with SR; 7.46 µM (inactive) with KM12. Further, the GI50 is 33.7 µM (inactive) with A498 and 11.5 µM (inactive) in the assay with LOX IMVI.

On to `CCOC(=O)Nc1cc2c(c(N)n1)N=C(c1ccccc1)[C@H](C)N2` [MIVOBULIN ISETHIONATE], for which the GI50 was 0.0369 µM (active) with U-251; < 0.0001 µM (active) with HCT-116; 0.00215 µM (active) in the assay with UACC-257; < 0.0001 µM (active) in the assay with A549; 0.000303 µM (active) in the assay on UO-31; < 0.0001 µM (active) with Hs-578T. In addition, the GI50 is 0.00011 µM (active) in the assay on M14; < 0.0001 µM (active) with NCI-H460; < 0.0001 µM (active) in the assay with CCRF-CEM; < 0.0001 µM (active) in the assay with HCC 2998; < 0.0001 µM (active) with NCI-H522; < 0.0001 µM (active) in the assay with MOLT-4. The GI50 with SF-295 is < 0.0001 µM (active); in the assay on HT-29 it was < 0.0001 µM (active); in the assay with HOP-92, 0.01 µM (active); in the assay with OVCAR-3 it was 0.000468 µM (active); in the assay with SR, < 0.0001 µM (active); in the assay with KM12, < 0.0001 µM (active). Also, the GI50 in the assay with A498 was 0.0299 µM (active); in the assay on LOX IMVI, < 0.0001 µM (active).
